Literature values as cited in article PMC2832019, “In Vitro Metabolic and Mitogenic Signaling of Insulin Glargine and Its Metabolites” (PLoS ONE, 2010).
Like-named read-outs stand apart in the source and are kept apart here.

Assays:
[1] = tested on: BT474, T47D, ZR75-1, MDA-MB231, HCC1937; details: ref [15]; cited from earlier work
Source text: (§1) A correlation between IGF1R autophosphorylation and cell proliferation has been recently assumed by Shukla et al., who observed an enhanced growth of the malignant cell line MCF7 after insulin glargine stimulation. The authors have observed 10% and 50% increases of cellular proliferation at 0.31 and about 15 nmol/L. This effect seemed to be linked to activation of the IGF1R and the MAPK pathway, since siRNA knockdown of IGF1R decreased the response. Unfortunately, no dose-response curve of IGF1R autophosphorylation as well as no proliferation data from siRNA knockdown of IR have ...

Sprague-Dawley rats = details: rat, in vivo; cited from earlier work
MCF-7 and SKBR-3 cells = details: ref [48]; cited from earlier work
Source text: as §1

[2] = tested on: MCF7 and other tumor cell lines; details: ref [14]; cited from earlier work
Source text: as §1

MCF7 = details: ref [15], cited from earlier work
Source text: as §1

[3] = tested on: MCF-7 cells, HCT-116 (colorectal cancer) and PC-3 (prostate cancer) cells; details: ref [49]; cited from earlier work
Source text: A correlation between IGF1R autophosphorylation and cell proliferation has been recently assumed by Shukla et al., who observed an enhanced growth of the malignant cell line MCF7 after insulin glargine stimulation. The authors have observed 10% and 50% increases of cellular proliferation at 0.31 and about 15 nmol/L. […] Unfortunately, no dose-response curve of IGF1R autophosphorylation as well as no proliferation data from siRNA knockdown of IR have ...

rats = details: 2-year life-time, relative to human insulin, ref [59]; cited from earlier work
Source text: In these studies plasma insulin concentrations were 15 to 25 nmol/L, covering parent compound and active metabolites. In consequence, actual glargine concentrations may be overestimated, the extent of which depends on the degree of proteolytic degradation at both the injection site and the serum. Quantitative assessment of the insulin glargine metabolism in humans is evolving, and will bring further clarification.

In the case of “Human insulin: human insulin produced by recombinant DNA techniques or enzymatic semisynthesis”, the “response of cell lines to human insulin” value [1] is given as “did not respond”.
For [Asp^B10]insulin, the “incidence of breast cancer” value (Sprague-Dawley rats) is listed as “higher incidence of breast cancer”.
For “[Gly^A21,Arg^B31,Arg^B32]insulin [Glargine]”, the mitogenic activity (MCF-7 and SKBR-3 cells) is listed as “slightly increased mitogenic activity of insulin glargine without statistical significance”, the “mitogenic activity relative to human insulin” value [2] is listed as “no evidence for an increased mitogenic activity” and the “increase of cellular proliferation” value (MCF7; at 0.31 nmol/L) is listed as 10%. For the same substance, the “increase of cellular proliferation” value (MCF7; at about 15 nmol/L) was 50%, the mitogenic potency [3] was “increased mitogenic potency” and the tumor-promoting activity (rats) was “without evidence of tumor-promoting activity greater than human insulin”.
